Reference: patent US7985455B2, “Polymerizable liquid crystal compound, liquid crystal composition, and polymer” (JNC Corporation, priority 2007, dated 2011)

Experiment: Solubility in PGMEA: deposition of crystals from a PGMEA solution allowed to stand at room temperature over night
Format: physicochemical
Conditions: 30% by weight PGMEA solution, room temperature (20° C.) over night
Protocol: The compound (1-8) was dissolved in PGMEA to prepare a 20% by weight PGMEA solution.
The compound (1-19) was dissolved in PGMEA to prepare a 20% by weight PGMEA solution.
The compound (1-42) was dissolved in PGMEA to prepare a 30% by weight PGMEA solution.
The compound (1-52) was dissolved in PGMEA to prepare a 30% by weight PGMEA solution.
The compound (M1-3) was dissolved in PGMEA to prepare a 10% by weight PGMEA solution. […] It is understood from the comparison between the result and Example 1 that the compound of the invention having an oxycarbonyloxy bonding group instead of an ether bond is excellent in solubility in PGMEA. Furthermore, it is understood from the comparison between Example 5 and Example 6 that the solubility in PGMEA is further enhanced by introducing an ether structure (—O—) to the alkylene in the side chain.

C=CC(=O)OCCOCCOC(=O)Oc1ccc(C(=O)Oc2ccc3c(c2)C(C)c2cc(OC(=O)c4ccc(OC(=O)OCCOCCOC(=O)C=C)cc4)ccc2-3)cc1 [Compound 1-42]
deposition of crystals from PGMEA solution: no deposition of crystals
